Common to all, as to type: cell-based
The test system of series [1] is Acinetobacter baumannii 872842. The settings on record: 872842.
Series [2] concerns Acinetobacter baumannii DSM 30008. As to conditions: DSM 30008. The method in brief:
(§1)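 MIC in μg/mL read as absence of visible growth after 18-20 h incubation at 35° C. Bacteria at about 10^6 CFU/mL in MH-II (cation-adjusted) broth plus 0.002% P-80 were exposed to two-fold peptide dilutions per standard CLSI microdilution.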

The next series relates to Escherichia coli 926415. As to conditions: 926415.
Series [3] deals with Escherichia coli ATCC 25922. As to conditions: ATCC 25922. The method in brief: as §1
For series [4], the system named is Klebsiella pneumoniae 968733. As to conditions: 968733.
The test system of series [5] is Klebsiella pneumoniae SSI #3010. The settings on record: SSI #3010. The method in brief:
as §1

The subject of series [6] is Pseudomonas aeruginosa ATCC 27853. The settings on record: ATCC 27853. The method in brief: as §1
For series [7], the system named is human red blood cells (hRBC). Description: Hemolysis of human red blood cells. The settings on record: red cells of human, 1 h, 100 μg/mL. The method in brief: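 Fresh human red blood cells are washed in PBS, then shaken with peptide (100 μg/mL) at 37° C. for 1 h, final erythrocyte density about 0.9×10^9 cells/mL. After centrifugation, diluted supernatants are read at 540 nm against buffer (0%) and Triton X-100 (100%) lysis controls.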

The structures appear in SMILES notation. Where a SMILES comes first, the peptide text is derived from it. Bridges are numbered along the chain shown (N, C = ends). [ ]: non-standard residue; d: D form. dDab = NCC[C@@H](N)C(=O)O; Dab = NCC[C@H](N)C(=O)O

On to `CC(C)C[C@@H]1NC(=O)[C@H](CO)NC(=O)[C@H](Cc2ccc(O)cc2)NC(=O)[C@@H]2CCCN2C(=O)[C@H]2CCCN2C(=O)[C@H](Cc2ccc(O)cc2)NC(=O)[C@H](C)NC(=O)[C@H](C(C)C)NC(=O)[C@@H](NC(=O)[C@@H](N)Cc2c[nH]c3ccccc23)CSSC[C@@H](C(=O)NCC(=O)N[C@@H](CCN)C(=O)N[C@H](C(=O)N[C@@H](CCN)C(=O)N[C@H]2CCNC(=O)[C@H]([C@@H](C)O)NC(=O)[C@H](CCN)NC(=O)[C@H](CCN)NC(=O)[C@H](CC(C)C)NC(=O)[C@@H](CC(C)C)NC(=O)[C@H](CCN)NC2=O)[C@@H](C)O)NC1=O` [Ex. 153] (H-WCVAY[dP]PYSLCG[Dab]T[Dab][Dab][Dab][dL]L[Dab][Dab]T; disulfide 2-11; lactam 16-C), for which the “Acinetobacter baumannii 872842 MIC” value in series [1] is 0.03125 µg/mL. Further, in series [2], the “Acinetobacter baumannii DSM 30008 MIC” value amounted to 0.125 µg/mL. Further, in the series on Escherichia coli 926415, the “Escherichia coli 926415 MIC” value came to 0.125 µg/mL. The “Escherichia coli ATCC 25922 MIC” value in series [3] worked out at 0.0625 µg/mL. Further, the “Klebsiella pneumoniae 968733 MIC” value in series [4] worked out at 0.0625 µg/mL. Moreover, the “Klebsiella pneumoniae SSI #3010 MIC” value in series [5] was found to be 0.0625 µg/mL. In addition, in series [6], the “Pseudomonas aeruginosa ATCC 27853 MIC” value is 0.5 µg/mL. In addition, the “Hemolysis at 100 μg/mL” value in series [7] is on record as under 1%.
In the case of `CC(C)C[C@@H]1NC(=O)[C@H](CO)NC(=O)[C@H](CC(C)C)NC(=O)[C@@H]2CCCN2C(=O)[C@H]2CCCN2C(=O)[C@H]([C@@H](C)O)NC(=O)[C@H](C)NC(=O)[C@H](C(C)C)NC(=O)[C@@H](NC(=O)[C@@H](N)CC(C)C)CSSC[C@@H](C(=O)NCC(=O)N[C@@H](CCN)C(=O)N[C@H](C(=O)N[C@@H](CCN)C(=O)N[C@H]2CCNC(=O)[C@H]([C@@H](C)O)NC(=O)[C@H](CCN)NC(=O)[C@H](CCN)NC(=O)[C@H](CC(C)C)NC(=O)[C@@H](CC(C)C)NC(=O)[C@H](CCN)NC2=O)[C@@H](C)O)NC1=O` [Ex. 154] (H-LCVAT[dP]PLSLCG[Dab]T[Dab][Dab][Dab][dL]L[Dab][Dab]T; disulfide 2-11; lactam 16-C), the “Acinetobacter baumannii 872842 MIC” value in series [1] amounted to 0.03125 µg/mL. For the same molecule, the “Acinetobacter baumannii DSM 30008 MIC” value in series [2] was found to be 0.0625 µg/mL. For the same molecule, the “Escherichia coli 926415 MIC” value in the series on Escherichia coli 926415 worked out at 0.125 µg/mL. For the same molecule, the “Escherichia coli ATCC 25922 MIC” value in series [3] was 0.0625 µg/mL. Besides, the “Klebsiella pneumoniae 968733 MIC” value in series [4] came to 0.25 µg/mL. Moreover, the “Klebsiella pneumoniae SSI #3010 MIC” value in series [5] stood at 0.0625 µg/mL. Besides, the “Pseudomonas aeruginosa ATCC 27853 MIC” value in series [6] stood at 1 µg/mL. Besides, the “Hemolysis at 100 μg/mL” value in series [7] is on record as under 1%.
As for `CC(C)C[C@@H]1NC(=O)[C@H](CO)NC(=O)[C@H](Cc2ccc(O)cc2)NC(=O)[C@@H]2CCCN2C(=O)[C@H]2CCCN2C(=O)[C@H](C(C)C)NC(=O)[C@H](C)NC(=O)[C@H](C(C)C)NC(=O)[C@@H](NC(=O)[C@@H](N)C(C)C)CSSC[C@@H](C(=O)NCC(=O)N[C@@H](CCN)C(=O)N[C@H](C(=O)N[C@@H](CCN)C(=O)N[C@H]2CCNC(=O)[C@H]([C@@H](C)O)NC(=O)[C@H](CCN)NC(=O)[C@H](CCN)NC(=O)[C@H](CC(C)C)NC(=O)[C@@H](CC(C)C)NC(=O)[C@H](CCN)NC2=O)[C@@H](C)O)NC1=O` [Ex. 155] (H-VCVAV[dP]PYSLCG[Dab]T[Dab][Dab][Dab][dL]L[Dab][Dab]T; disulfide 2-11; lactam 16-C), in series [1], the “Acinetobacter baumannii 872842 MIC” value was determined as 0.0625 µg/mL. Further, the “Acinetobacter baumannii DSM 30008 MIC” value in series [2] worked out at 0.03125 µg/mL. Moreover, the “Escherichia coli 926415 MIC” value with Escherichia coli 926415 is 0.25 µg/mL. In series [3], the “Escherichia coli ATCC 25922 MIC” value stood at 0.0625 µg/mL. Besides, the “Klebsiella pneumoniae 968733 MIC” value in series [4] turned out to be 0.5 µg/mL. Besides, the “Klebsiella pneumoniae SSI #3010 MIC” value in series [5] turned out to be 0.0625 µg/mL. Also, in series [6], the “Pseudomonas aeruginosa ATCC 27853 MIC” value amounted to 1 µg/mL. Also, the “Hemolysis at 100 μg/mL” value in series [7] is under 1%.
On to `CC(C)C[C@@H]1NC(=O)[C@H](CO)NC(=O)[C@H](Cc2ccc(O)cc2)NC(=O)[C@@H]2CCCN2C(=O)[C@H]2CCCN2C(=O)[C@H](Cc2c[nH]cn2)NC(=O)[C@H](C)NC(=O)[C@H](C(C)C)NC(=O)[C@@H](NC(=O)[C@@H](N)CC(C)C)CSSC[C@@H](C(=O)NCC(=O)N[C@@H](CCN)C(=O)N[C@H](C(=O)N[C@@H](CCN)C(=O)N[C@H]2CCNC(=O)[C@H]([C@@H](C)O)NC(=O)[C@H](CCN)NC(=O)[C@H](CCN)NC(=O)[C@H](CC(C)C)NC(=O)[C@@H](CC(C)C)NC(=O)[C@H](CCN)NC2=O)[C@@H](C)O)NC1=O` [Ex. 156] (H-LCVAH[dP]PYSLCG[Dab]T[Dab][Dab][Dab][dL]L[Dab][Dab]T; disulfide 2-11; lactam 16-C), for which the “Acinetobacter baumannii 872842 MIC” value in series [1] turned out to be 0.0625 µg/mL. In addition, in series [2], the “Acinetobacter baumannii DSM 30008 MIC” value was 0.125 µg/mL. Further, the “Escherichia coli 926415 MIC” value with Escherichia coli 926415 was 1 µg/mL. The “Escherichia coli ATCC 25922 MIC” value in series [3] was determined as 0.125 µg/mL. In addition, the “Klebsiella pneumoniae 968733 MIC” value in series [4] worked out at 0.5 µg/mL. Moreover, the “Klebsiella pneumoniae SSI #3010 MIC” value in series [5] was determined as 0.125 µg/mL. The “Pseudomonas aeruginosa ATCC 27853 MIC” value in series [6] is 0.25 µg/mL. In addition, the “Hemolysis at 100 μg/mL” value in series [7] is under 1%.
Regarding `CC(C)C[C@@H]1NC(=O)[C@@H](CC(C)C)NC(=O)[C@H](CCN)NC(=O)[C@@H](NC(=O)[C@H](CCN)NC(=O)[C@@H](NC(=O)[C@H](CCN)NC(=O)CNC(=O)[C@@H]2CSSC[C@H](NC(=O)[C@@H](N)CC(C)C)C(=O)N[C@@H](C(C)C)C(=O)N[C@@H](C)C(=O)N[C@@H](Cc3ccc(O)cc3)C(=O)N[C@H](CCN)C(=O)N3CCC[C@H]3C(=O)N[C@@H](CC(C)C)C(=O)N[C@@H](CO)C(=O)N[C@@H](Cc3ccc(O)cc3)C(=O)N2)[C@@H](C)O)CCNC(=O)[C@H]([C@@H](C)O)NC(=O)[C@H](CCN)NC(=O)[C@H](CCN)NC1=O` [Ex. 157] (H-LCVAY[dDab]PLSYCG[Dab]T[Dab][Dab][Dab][dL]L[Dab][Dab]T; disulfide 2-11; lactam 16-C), the “Acinetobacter baumannii 872842 MIC” value in series [1] amounted to 0.03125 µg/mL. The “Acinetobacter baumannii DSM 30008 MIC” value in series [2] turned out to be 0.0625 µg/mL. For the same molecule, the “Escherichia coli 926415 MIC” value in the series with Escherichia coli 926415 was 0.125 µg/mL. Further, the “Escherichia coli ATCC 25922 MIC” value in series [3] worked out at 0.0625 µg/mL. The “Klebsiella pneumoniae 968733 MIC” value in series [4] amounted to 1 µg/mL. For the same molecule, in series [5], the “Klebsiella pneumoniae SSI #3010 MIC” value was determined as 0.125 µg/mL. The “Pseudomonas aeruginosa ATCC 27853 MIC” value in series [6] worked out at 0.5 µg/mL. Also, in series [7], the “Hemolysis at 100 μg/mL” value is under 1%.
For the molecule `CC(C)C[C@@H]1NC(=O)[C@H](CO)NC(=O)[C@H](Cc2ccc(O)cc2)NC(=O)[C@@H]2CCCN2C(=O)[C@H]2CCCN2C(=O)[C@H]([C@@H](C)O)NC(=O)[C@H](C)NC(=O)[C@H](Cc2ccc(O)cc2)NC(=O)[C@@H](NC(=O)[C@@H](N)CC(C)C)CSSC[C@@H](C(=O)NCC(=O)N[C@@H](CCN)C(=O)N[C@H](C(=O)N[C@@H](CCN)C(=O)N[C@H]2CCNC(=O)[C@H]([C@@H](C)O)NC(=O)[C@H](CCN)NC(=O)[C@H](CCN)NC(=O)[C@H](CC(C)C)NC(=O)[C@@H](CC(C)C)NC(=O)[C@H](CCN)NC2=O)[C@@H](C)O)NC1=O` [Ex. 158] (H-LCYAT[dP]PYSLCG[Dab]T[Dab][Dab][Dab][dL]L[Dab][Dab]T; disulfide 2-11; lactam 16-C), the “Acinetobacter baumannii 872842 MIC” value in series [1] turned out to be 0.25 µg/mL. The “Acinetobacter baumannii DSM 30008 MIC” value in series [2] came out at 0.25 µg/mL. In addition, in the series on Escherichia coli 926415, the “Escherichia coli 926415 MIC” value was found to be 4 µg/mL. The “Escherichia coli ATCC 25922 MIC” value in series [3] was determined as 0.125 µg/mL. The “Klebsiella pneumoniae 968733 MIC” value in series [4] was determined as 8 µg/mL. Also, the “Klebsiella pneumoniae SSI #3010 MIC” value in series [5] was 0.125 µg/mL. For the same molecule, the “Pseudomonas aeruginosa ATCC 27853 MIC” value in series [6] was 0.5 µg/mL. The “Hemolysis at 100 μg/mL” value in series [7] is under 1%.

The record behind these values is patent US10829520B2, “Beta-hairpin peptidomimetics” (POLYPHOR AG, priority 2015, dated 2020).
